Reference: the NIST ThermoML archive (doi:10.1021/je800110r)
Numbers after ± are expanded uncertainties.

Settings: Liquid, Vibrating tube method

CCCCCCCCCC [decane]
Settings | mass density [kg/m3]
313.15 K, 25586 kPa | 734.5 ± 2.1
313.15 K, 25902 kPa | 734.7 ± 2.1
313.15 K, 25935 kPa | 734.7 ± 2.1
313.15 K, 25969 kPa | 734.6 ± 2.1
313.15 K, 25993 kPa | 734.9 ± 2.1
313.15 K, 26027 kPa | 734.7 ± 2.1
313.15 K, 26065 kPa | 734.7 ± 2.1
313.15 K, 26104 kPa | 734.9 ± 2.1
313.15 K, 26144 kPa | 735 ± 2.1
313.15 K, 26173 kPa | 734.9 ± 2.1
313.15 K, 26208 kPa | 734.9 ± 2.1
313.15 K, 26233 kPa | 734.9 ± 2.1
313.15 K, 26272 kPa | 735 ± 2.1
313.15 K, 26306 kPa | 735 ± 2.1
313.15 K, 26341 kPa | 735 ± 2.1
313.15 K, 26370 kPa | 735.1 ± 2.1
313.15 K, 26410 kPa | 735 ± 2.1
313.15 K, 26440 kPa | 735.2 ± 2.1
313.15 K, 26475 kPa | 735.2 ± 2.1
313.15 K, 26510 kPa | 735.1 ± 2.1
313.15 K, 26557 kPa | 735.1 ± 2.1
313.15 K, 26582 kPa | 735.1 ± 2.1
313.15 K, 26614 kPa | 735.3 ± 2.1
313.15 K, 26655 kPa | 735.3 ± 2.1
313.15 K, 26690 kPa | 735.2 ± 2.1
313.15 K, 26722 kPa | 735.3 ± 2.1
313.15 K, 26763 kPa | 735.3 ± 2.1
313.15 K, 26799 kPa | 735.4 ± 2.1
313.15 K, 26842 kPa | 735.3 ± 2.1
313.15 K, 26874 kPa | 735.3 ± 2.1
313.15 K, 26911 kPa | 735.5 ± 2.1
313.15 K, 26941 kPa | 735.5 ± 2.1
313.15 K, 26969 kPa | 735.5 ± 2.1
313.15 K, 26998 kPa | 735.6 ± 2.1
313.15 K, 27035 kPa | 735.4 ± 2.1
313.15 K, 27058 kPa | 735.5 ± 2.1
313.15 K, 27874 kPa | 736 ± 2.1
313.15 K, 27972 kPa | 736 ± 2.1
313.15 K, 28011 kPa | 736.2 ± 2.1
313.15 K, 28036 kPa | 736 ± 2.1
313.15 K, 28071 kPa | 736.1 ± 2.1
313.15 K, 28101 kPa | 736.2 ± 2.1
313.15 K, 28131 kPa | 736.2 ± 2.1
313.15 K, 28162 kPa | 736.3 ± 2.1
313.15 K, 28202 kPa | 736.3 ± 2.1
313.15 K, 28237 kPa | 736.3 ± 2.1
313.15 K, 28272 kPa | 736.3 ± 2.1
313.15 K, 28297 kPa | 736.3 ± 2.1
313.15 K, 28327 kPa | 736.3 ± 2.1
313.15 K, 28372 kPa | 736.4 ± 2.1
313.15 K, 28403 kPa | 736.4 ± 2.1
313.15 K, 28449 kPa | 736.5 ± 2.1
313.15 K, 28480 kPa | 736.5 ± 2.1
313.15 K, 28515 kPa | 736.4 ± 2.1
313.15 K, 28542 kPa | 736.5 ± 2.1
313.15 K, 28578 kPa | 736.5 ± 2.1
313.15 K, 28619 kPa | 736.5 ± 2.1
313.15 K, 28645 kPa | 736.5 ± 2.1
313.15 K, 28692 kPa | 736.6 ± 2.1
313.15 K, 28723 kPa | 736.7 ± 2.1
313.15 K, 28750 kPa | 736.7 ± 2.1
313.15 K, 28791 kPa | 736.7 ± 2.1
313.15 K, 28828 kPa | 736.6 ± 2.1
313.15 K, 28860 kPa | 736.8 ± 2.1
313.15 K, 28902 kPa | 736.7 ± 2.1
313.15 K, 28945 kPa | 736.8 ± 2.1
313.15 K, 28971 kPa | 736.8 ± 2.1
313.15 K, 29019 kPa | 736.8 ± 2.1
313.15 K, 29061 kPa | 736.9 ± 2.1
313.15 K, 29168 kPa | 737 ± 2.1
313.15 K, 30647 kPa | 737.9 ± 2.1
313.15 K, 30676 kPa | 738 ± 2.1
313.15 K, 30710 kPa | 737.9 ± 2.1
313.15 K, 30738 kPa | 738 ± 2.1
313.15 K, 30777 kPa | 738 ± 2.1
313.15 K, 30816 kPa | 738.1 ± 2.1
313.15 K, 30856 kPa | 738.1 ± 2.1
313.15 K, 30889 kPa | 738.1 ± 2.1
313.15 K, 30929 kPa | 738 ± 2.1
313.15 K, 30974 kPa | 738.1 ± 2.1
313.15 K, 31089 kPa | 738.2 ± 2.1
313.15 K, 31432 kPa | 738.4 ± 2.1
313.15 K, 31467 kPa | 738.4 ± 2.1
313.15 K, 31515 kPa | 738.4 ± 2.1
313.15 K, 31562 kPa | 738.5 ± 2.1
313.15 K, 31610 kPa | 738.4 ± 2.1
313.15 K, 31646 kPa | 738.6 ± 2.1
313.15 K, 31694 kPa | 738.6 ± 2.1
313.15 K, 31736 kPa | 738.6 ± 2.1
313.15 K, 31766 kPa | 738.4 ± 2.1
313.15 K, 31815 kPa | 738.6 ± 2.1
313.15 K, 31856 kPa | 738.6 ± 2.1
313.15 K, 31901 kPa | 738.7 ± 2.1
313.15 K, 31947 kPa | 738.7 ± 2.1
313.15 K, 31981 kPa | 738.7 ± 2.1
313.15 K, 32023 kPa | 738.8 ± 2.1
313.15 K, 32070 kPa | 738.8 ± 2.1
313.15 K, 32100 kPa | 738.9 ± 2.1
313.15 K, 32135 kPa | 738.9 ± 2.1
313.15 K, 32176 kPa | 738.9 ± 2.1
313.15 K, 32213 kPa | 738.9 ± 2.1
313.15 K, 32253 kPa | 738.9 ± 2.1
313.15 K, 32294 kPa | 738.9 ± 2.1
313.15 K, 32345 kPa | 739 ± 2.1
313.15 K, 32379 kPa | 739 ± 2.1
313.15 K, 32413 kPa | 739 ± 2.1
313.15 K, 32459 kPa | 739.1 ± 2.1
313.15 K, 32491 kPa | 739.1 ± 2.1
313.15 K, 32528 kPa | 739.1 ± 2.1
313.15 K, 32561 kPa | 739.1 ± 2.1
313.15 K, 32592 kPa | 739.3 ± 2.1
313.15 K, 32633 kPa | 739.1 ± 2.1
313.15 K, 32666 kPa | 739.2 ± 2.1
313.15 K, 32704 kPa | 739.3 ± 2.1
313.15 K, 32737 kPa | 739.3 ± 2.1
313.15 K, 32770 kPa | 739.3 ± 2.1
313.16 K, 339 kPa | 714.8 ± 2
313.16 K, 365 kPa | 714.9 ± 2
313.16 K, 391 kPa | 715 ± 2
313.16 K, 423 kPa | 715 ± 2
313.16 K, 450 kPa | 714.9 ± 2
313.16 K, 478 kPa | 715 ± 2
313.16 K, 508 kPa | 715 ± 2
313.16 K, 548 kPa | 715.1 ± 2
313.16 K, 579 kPa | 715.1 ± 2
313.16 K, 595 kPa | 715.2 ± 2
313.16 K, 607 kPa | 715.1 ± 2
313.16 K, 620 kPa | 715 ± 2
313.16 K, 631 kPa | 715.1 ± 2
313.16 K, 651 kPa | 715.2 ± 2
313.16 K, 661 kPa | 715.1 ± 2
313.16 K, 673 kPa | 715.3 ± 2
313.16 K, 686 kPa | 715.2 ± 2
313.16 K, 699 kPa | 715.2 ± 2
313.16 K, 719 kPa | 715.2 ± 2
313.16 K, 733 kPa | 715.2 ± 2
